Read-outs that look alike come from different tables or passages of the source.
Assays:
SVCT2 [1] = biological target: T1, SVCT2 (Homo sapiens, UniProt Q9UGH3); set-up: endogenous in cells; host or cells: HTR-8/SVneo human trophoblast cell line; details: cited from earlier work; for uptake of LAA via SVCT2: trophoblast cells; for inhibitory action for LAA transporter SVCT2: HTR-8/SVneo cells
Target sequence in this assay (Q9UGH3 whole entry): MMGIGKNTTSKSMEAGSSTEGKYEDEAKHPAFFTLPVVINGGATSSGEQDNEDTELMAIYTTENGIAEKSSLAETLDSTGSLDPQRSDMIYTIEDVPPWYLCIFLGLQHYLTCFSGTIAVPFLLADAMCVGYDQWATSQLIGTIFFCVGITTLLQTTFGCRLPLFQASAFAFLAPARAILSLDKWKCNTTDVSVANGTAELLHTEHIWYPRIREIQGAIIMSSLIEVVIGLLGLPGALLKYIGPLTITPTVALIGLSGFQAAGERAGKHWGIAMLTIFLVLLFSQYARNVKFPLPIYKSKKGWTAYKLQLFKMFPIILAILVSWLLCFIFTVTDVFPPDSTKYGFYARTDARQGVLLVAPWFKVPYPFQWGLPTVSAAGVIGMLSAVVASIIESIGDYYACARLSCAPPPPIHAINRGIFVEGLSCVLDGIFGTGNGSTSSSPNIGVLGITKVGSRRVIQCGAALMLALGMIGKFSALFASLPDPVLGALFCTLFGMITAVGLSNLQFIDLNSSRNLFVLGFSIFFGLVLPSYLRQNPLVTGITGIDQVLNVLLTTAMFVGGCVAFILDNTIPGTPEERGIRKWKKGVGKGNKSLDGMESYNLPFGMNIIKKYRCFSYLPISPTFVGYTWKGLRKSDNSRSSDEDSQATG

SVCT2 [2] = biological target: T1, SVCT2; set-up: endogenous in cells; host or cells: bone marrow stromal cells (BMSCs); details: 600 uM, BMSCs; cited from earlier work
Target sequence in this assay (Q9UGH3 whole entry, species assumed): as the sequence (Q9UGH3 whole entry) above

[3] = cited from earlier work
human leukemic cells = details: bone marrows from 259 patients; cited from earlier work
leukemic blast cells = assay: Phase I/II clinical trial of LAA depletion alternating with LAA supplementation; format: in vivo, human
Description: No. 12, Blood. 2000 (see Reference 9).
That is, in the example, a leukemia patient first received a chemotherapy and subsequently received the LAA supplementation. […] The noted sharp decline is much more precipitous than what can be observed with chemotherapy.
In the example, the significant improvement is also noted that there was a total of 8 out of 16 patients in the Phase I/II clinical trial responding (p=0.007).

sarcoma tumors = details: oral gavage, cited from earlier work
[4] = humans, oral; cited from earlier work
SVCT1(h) = biological target: T2, SVCT1(h) (Homo sapiens, UniProt Q9UHI7); details: 50 uM, ascorbate 10-400 uM; cited from earlier work
T2 construct: expressed in transfected cells
T2 sequence (Q9UHI7 whole entry): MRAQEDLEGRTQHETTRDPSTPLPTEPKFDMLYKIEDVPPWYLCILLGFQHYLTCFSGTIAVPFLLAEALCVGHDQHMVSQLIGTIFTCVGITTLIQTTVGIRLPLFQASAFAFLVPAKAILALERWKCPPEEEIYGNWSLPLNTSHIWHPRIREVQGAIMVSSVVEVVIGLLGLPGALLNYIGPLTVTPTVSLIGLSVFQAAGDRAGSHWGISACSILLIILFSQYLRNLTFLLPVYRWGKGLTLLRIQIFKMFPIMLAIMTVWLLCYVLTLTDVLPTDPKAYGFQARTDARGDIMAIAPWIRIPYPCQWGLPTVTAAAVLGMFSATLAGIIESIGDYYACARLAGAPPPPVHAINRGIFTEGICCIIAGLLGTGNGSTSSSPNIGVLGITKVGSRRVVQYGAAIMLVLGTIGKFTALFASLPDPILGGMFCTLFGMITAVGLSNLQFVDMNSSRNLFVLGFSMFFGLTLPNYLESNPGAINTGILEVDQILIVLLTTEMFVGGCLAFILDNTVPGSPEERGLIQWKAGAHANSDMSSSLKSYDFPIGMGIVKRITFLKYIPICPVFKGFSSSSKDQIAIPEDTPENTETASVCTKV

SVCT2 [5] = details: 200 uM, cortical or cerebellar neurons; cited from earlier work

## COc1ccc2c(c1)c(CC(=O)O)c(C)n2C(=O)c1ccc(Cl)cc1 [indomethacin]
SVCT2 [1]
  uptake of LAA via SVCT2: inhibit the uptake of LAA

## C[C@]12CC[C@@H]3c4ccc(O)cc4CC[C@H]3[C@@H]1CC[C@@H]2O [17β-estadiol]
SVCT2 [1]
  inhibitory action for LAA transporter SVCT2: very strong inhibitory action

## Cl.N=c1c[n+](N2CCOCC2)[n-]o1 [SIN-1, 3-(4-Morpholinyl) sydnonimine hydrochloride]
SVCT2 [2]
  decrease in LAA uptake: up to 40%

## O=C1O[C@H]([C@@H](O)CO)C(O)=C1O [LAA, L-ascorbic acid]
[3]; intravenous infusion
  peak concentrations without significant adverse effects: over 10 mMol
[3]; oral, up to 180 gram per day in divided doses
  blood levels: ≤ 200 µM
Human leukemic cells
  patients whose leukemic cells had the requirement of LAA for growth: ~50%
Leukemic blast cells; LAA supplementation after chemotherapy (FIG. 3B)
  D-dimer test for massive cell lysis: sharp increase
Leukemic blast cells; Phase I/II clinical trial, 16 evaluated patients, p=0.007
  patients responding: 8 out of 16
Leukemic blast cells; after 10 days of LAA supplementation, relapse after cytotoxic chemotherapy (FIG. 3A)
  leukemic blast cells in peripheral blood: sharp decline
Leukemic blast cells; alternation of LAA supplementation and depletion, same patient (FIG. 2B)
  frequency of platelet transfusion: marked reduction in the frequency of platelet transfusion
Leukemic blast cells; during supplementation of LAA phase, intravenous, one patient (FIG. 2A)
  leukemic blast cell number (peripheral blood and bone marrow): decline in leukemic blast cell number
Leukemic blast cells; during supplementation of LAA phase, one patient (FIG. 2A)
  spleen size: decline in spleen size
Sarcoma tumors; 0.3 mg/kg/day, up to 24 weeks
  complete tumor regression, animals: 55%
Sarcoma tumors; 10 mg/kg/day
  tumor growth: tumor inhibition but no regression
Sarcoma tumors; 1 g/kg/day
  tumor growth: grew without sign of retardation

## O=c1c(-c2ccc(O)cc2)coc2cc(O)cc(O)c12 [genistein]
SVCT2 [1]
  inhibitory action for LAA transporter SVCT2: very strong inhibitory action

## O=C(O)Cc1ccccc1Nc1c(Cl)cccc1Cl [diclofenac]
SVCT2 [1]
  inhibitory action for LAA transporter SVCT2: very strong inhibitory action
  uptake of LAA via SVCT2: inhibit the uptake of LAA

## O=c1c(O)c(-c2ccc(O)c(O)c2)oc2cc(O)cc(O)c12 [quercetin]
SVCT2 [1]
  inhibitory action for LAA transporter SVCT2: very strong inhibitory action
[4]
  dose administered orally without side effects: 4 g
SVCT1(h)
  inhibition of LAA transporter SVCT1(h): about 80%
SVCT2 [5]
  decrease of LAA transport SVCT2: 80%
